Experimental data as given in PubChem BioAssay AID1845207 (Molecular Pharmacology Branch, DTP, NCI, 2023).
Several values for one entry are separate records, joined by “and”; a condition that tells them apart may be missing. Equal values may be shown once.

Test system: NCI-H1876 tumor spheroid viability
Assay: Anticancer human tumor NCI-H1876 cell line growth inhibition;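 note: spheroids exposed to compounds for seven days before the viability read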;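 for viability, T/C: percent of DMSO vehicle control viability so 100% = vehicle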
Settings: spheroids with HUVEC and MSC; for viability, T/C: stronger effect = lower value
Procedure, shortened: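 Single agents and combinations were tested on spheroids built from tumor cells plus HUVEC and hMSC, at half-log dilutions starting at or near clinical Cmax, else 10 microM; final DMSO 0.25% (v/v).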

[1] = curve of first compound, second compound 0.003 µM
[2] = curve of first compound, second compound 30 pM
[3] = curve of first compound, second compound 94.9 pM
[4] = curve of first compound, second compound 0.0003 µM
[5] = curve of first compound, second compound 0.000949 µM
[6] = second compound 30 pM, first compound 0.0316 µM
[7] = second compound 30 pM, first compound 0.1 µM
[8] = second compound 30 pM, first compound 0.316 µM
[9] = second compound 30 pM, first compound 1 µM
[10] = second compound 30 pM, first compound 3.16 µM
[11] = second compound 30 pM, first compound 10 µM
[12] = second compound 94.9 pM, first compound 0.0316 µM
[13] = second compound 94.9 pM, first compound 0.1 µM
[14] = second compound 94.9 pM, first compound 0.316 µM
[15] = second compound 94.9 pM, first compound 1 µM
[16] = second compound 94.9 pM, first compound 3.16 µM
[17] = second compound 94.9 pM, first compound 10 µM
[18] = second compound 0.0003 µM, first compound 0.0316 µM
[19] = second compound 0.0003 µM, first compound 0.1 µM
[20] = second compound 0.0003 µM, first compound 0.316 µM
[21] = second compound 0.0003 µM, first compound 1 µM
[22] = second compound 0.0003 µM, first compound 3.16 µM
[23] = second compound 0.0003 µM, first compound 10 µM
[24] = second compound 0.000949 µM, first compound 0.0316 µM
[25] = second compound 0.000949 µM, first compound 0.1 µM
[26] = second compound 0.000949 µM, first compound 0.316 µM
[27] = second compound 0.000949 µM, first compound 1 µM
[28] = second compound 0.000949 µM, first compound 3.16 µM
[29] = second compound 0.000949 µM, first compound 10 µM
[30] = second compound 0.003 µM, first compound 0.0316 µM
[31] = second compound 0.003 µM, first compound 0.1 µM
[32] = second compound 0.003 µM, first compound 0.316 µM
[33] = second compound 0.003 µM, first compound 1 µM
[34] = second compound 0.003 µM, first compound 3.16 µM
[35] = second compound 0.003 µM, first compound 10 µM

Structure (SMILES): O=C(c1cc(Cc2n[nH]c(=O)c3ccccc23)ccc1F)N1CCN(C(=O)C2CC2)CC1 + CC[C@@]1(O)C(=O)OCc2c1cc1n(c2=O)Cc2cc3c(CN(C)C)c(O)ccc3nc2-1
- IC50 [1]: 325 nM
- IC50 (curve of first compound, second compound 0.00949 µM): < 94.9 nM
- IC50 (curve of first compound, second compound 0.03 µM): < 94.9 nM
- IC50 (curve of first compound, second compound 0.0949 µM): < 94.9 nM
- IC50 (curve of first compound, second compound 0.3 µM): < 94.9 nM
- viability, T/C (second compound 0.003 µM, first compound 0.0949 µM): 60.1%
- viability, T/C (second compound 0.003 µM, first compound 0.3 µM): 49.8%
- viability, T/C (second compound 0.003 µM, first compound 0.949 µM): 41.9%
- viability, T/C (second compound 0.003 µM, first compound 3 µM): 30.9%
- viability, T/C (second compound 0.003 µM, first compound 9.49 µM): 22%
- viability, T/C (second compound 0.003 µM, first compound 30 µM): 16%
- viability, T/C (second compound 0.00949 µM, first compound 0.0949 µM): 21.2%
- viability, T/C (second compound 0.00949 µM, first compound 0.3 µM): 21%
- viability, T/C (second compound 0.00949 µM, first compound 0.949 µM): 19.2%
- viability, T/C (second compound 0.00949 µM, first compound 3 µM): 20.6%
- viability, T/C (second compound 0.00949 µM, first compound 9.49 µM): 35.5%
- viability, T/C (second compound 0.00949 µM, first compound 30 µM): 15.7%
- viability, T/C (second compound 0.03 µM, first compound 0.0949 µM): 12.3%
- viability, T/C (second compound 0.03 µM, first compound 0.3 µM): 12.6%
- viability, T/C (second compound 0.03 µM, first compound 0.949 µM): 13.7%
- viability, T/C (second compound 0.03 µM, first compound 3 µM): 23.3%
- viability, T/C (second compound 0.03 µM, first compound 9.49 µM): 18.2%
- viability, T/C (second compound 0.03 µM, first compound 30 µM): 14.3%
- viability, T/C (second compound 0.0949 µM, first compound 0.0949 µM): 35.7%
- viability, T/C (second compound 0.0949 µM, first compound 0.3 µM): 7.72%
- viability, T/C (second compound 0.0949 µM, first compound 0.949 µM): 8.21%
- viability, T/C (second compound 0.0949 µM, first compound 3 µM): 10%
- viability, T/C (second compound 0.0949 µM, first compound 9.49 µM): 12.8%
- viability, T/C (second compound 0.0949 µM, first compound 30 µM): 14.4%
- viability, T/C (second compound 0.3 µM, first compound 0.0949 µM): 4.06%
- viability, T/C (second compound 0.3 µM, first compound 0.3 µM): 3.8%
- viability, T/C (second compound 0.3 µM, first compound 0.949 µM): 4.04%
- viability, T/C (second compound 0.3 µM, first compound 3 µM): 5.04%
- viability, T/C (second compound 0.3 µM, first compound 9.49 µM): 13.5%
- viability, T/C (second compound 0.3 µM, first compound 30 µM): 9.66%

Structure (SMILES): Cc1sc2c(c1C)C(c1ccc(Cl)cc1)=NC(CC(=O)Nc1ccc(O)cc1)c1nnc(C)n1-2 (stereo not drawn)
- viability, T/C (compound 0.00949 µM): 94.3% and 86.8% and 105%
- viability, T/C (compound 0.03 µM): 71.5% and 70.6% and 109%
- viability, T/C (compound 0.0949 µM): 51.4% and 53% and 109%
- viability, T/C (compound 0.3 µM): 33.7% and 35.1% and 81.6%
- viability, T/C (compound 0.949 µM): 17% and 16% and 39.7%
- viability, T/C (compound 3 µM): 12.9% and 9.5% and 12.3%
- IC50 (curve of compound): 98.8 nM and 112 nM and 709 nM

Structure (SMILES): CC[C@@]1(O)C(=O)OCc2c1cc1n(c2=O)Cc2cc3c(CN(C)C)c(O)ccc3nc2-1
- viability, T/C (compound 0.003 µM): 84.5% [middle of 10 runs]
- viability, T/C (compound 0.03 µM): 12.1% [middle of 10 runs]
- viability, T/C (compound 0.0949 µM): 8% [middle of 10 runs]
- viability, T/C (compound 0.3 µM): 3.52% [middle of 10 runs]
- IC50 (compound alone, run of 11/07/2019): 7.08 nM [middle of 5 runs]
- IC50 (compound alone, run of 12/16/2019): 5.61 nM [middle of 5 runs]

Structure (SMILES): COc1cc(C)[nH]c(=O)c1CN1CCc2c(Cl)cc(C(OC)C3COC3)c(Cl)c2C1=O (stereo not drawn) + COc1cc2c(cc1O)CCNC21CSC2c3c(OC(C)=O)c(C)c4c(c3C(COC1=O)N1C(O)C3Cc5cc(C)c(OC)c(O)c5C(C21)N3C)OCO4
- IC50 [2]: > 10000 nM
- IC50 [3]: > 10000 nM
- IC50 [4]: < 31.6 nM
- IC50 [5]: < 31.6 nM
- IC50 [1]: < 31.6 nM
- viability, T/C [6]: 99.7%
- viability, T/C [7]: 104%
- viability, T/C [8]: 96.9%
- viability, T/C [9]: 97.6%
- viability, T/C [10]: 94.5%
- viability, T/C [11]: 90.5%
- viability, T/C [12]: 91.6%
- viability, T/C [13]: 89.6%
- viability, T/C [14]: 89.5%
- viability, T/C [15]: 86.9%
- viability, T/C [16]: 81.9%
- viability, T/C [17]: 76.7%
- viability, T/C [18]: 22%
- viability, T/C [19]: 21.2%
- viability, T/C [20]: 23.9%
- viability, T/C [21]: 20.5%
- viability, T/C [22]: 19.1%
- viability, T/C [23]: 14%
- viability, T/C [24]: 2.52%
- viability, T/C [25]: 2.44%
- viability, T/C [26]: 2.38%
- viability, T/C [27]: 2.44%
- viability, T/C [28]: 2.06%
- viability, T/C [29]: 2.03%
- viability, T/C [30]: 0.75%
- viability, T/C [31]: 0.84%
- viability, T/C [32]: 0.98%
- viability, T/C [33]: 0.57%
- viability, T/C [34]: 0.7%
- viability, T/C [35]: 0.93%

Structure (SMILES): [2H]c1nc(C)nc([2H])c1-c1cc(NC[C@@H](C)c2cccc3c(C(=O)NC)ccnc23)ncn1 + COc1cc2c(cc1O)CCNC21CSC2c3c(OC(C)=O)c(C)c4c(c3C(COC1=O)N1C(O)C3Cc5cc(C)c(OC)c(O)c5C(C21)N3C)OCO4
- IC50 [2]: > 10000 nM
- IC50 [3]: > 10000 nM
- IC50 [4]: < 31.6 nM
- IC50 [5]: < 31.6 nM
- IC50 [1]: < 31.6 nM
- viability, T/C [6]: 102%
- viability, T/C [7]: 101%
- viability, T/C [8]: 101%
- viability, T/C [9]: 101%
- viability, T/C [10]: 100%
- viability, T/C [11]: 98%
- viability, T/C [12]: 90.8%
- viability, T/C [13]: 94.2%
- viability, T/C [14]: 94.6%
- viability, T/C [15]: 94.5%
- viability, T/C [16]: 93.9%
- viability, T/C [17]: 85.7%
- viability, T/C [18]: 31%
- viability, T/C [19]: 32.2%
- viability, T/C [20]: 35.5%
- viability, T/C [21]: 30%
- viability, T/C [22]: 31.6%
- viability, T/C [23]: 21.6%
- viability, T/C [24]: 3.38%
- viability, T/C [25]: 2.4%
- viability, T/C [26]: 2.32%
- viability, T/C [27]: 2.39%
- viability, T/C [28]: 2.46%
- viability, T/C [29]: 3.2%
- viability, T/C [30]: 0.5%
- viability, T/C [31]: 0.64%
- viability, T/C [32]: 0.5%
- viability, T/C [33]: 0.66%
- viability, T/C [34]: 0.74%
- viability, T/C [35]: 0.7%
